From patent US9587239B2, “Methods of identifying and treating glioblastoma” (THE TRANSLATIONAL GENOMICS RESEARCH INSTITUTE, priority 2008, dated 2017)

Tests used:
T98G cells = test: Alamar Blue cell viability assay, T98G; format: cell-based; details: Homo sapiens, 48 hours
Description: (§1) The Alamar Blue assay was used to assess viability as described previously (See Reference 29, incorporated by reference in its entirety). Briefly, 4000 cells of each population were seeded in quadruplicate wells of 96-well plastic plates in 200 μl of culture medium supplemented with 10% fetal bovine serum. Cells were treated with various conditions and the assay was developed 48 hours later. Alamar Blue was then added to the cells in a volume of 20 μl (10% of total volume) per well and the plates were incubated for 6 hours at 37° C. The plates were read on a fluorescence plate reader (excitation, 560 nm; emission, 600 nm). Averages of the fluorescence values were calculated and normalized to controls without Temozolomide.

SF767 cells = test: Alamar Blue cell viability assay, SF767; format: cell-based; details: Homo sapiens, 48 hours
Description: as §1

Cn1nnc2c(C(N)=O)ncn2c1=O [Temozolomide] gave an IC50 (T98G cells) of 250 µM and an IC50 (SF767 cells) of 125 µM.
